Measured values as given in US20250340527A1, “RIPK2 AND NOD INHIBITORS” (Trustees of Tufts College, priority 2022, published 2025).
Like-named read-outs stand apart in the source and are kept apart here.

Columns and labels:
[1] = Pharmacokinetic analysis in mice; type: in vivo, C57BL/6 mice
Excerpt: The pharmacokinetic properties of SS-1-64 are summarized in the following table along with a comparator RIPK2/NOD inhibitor CSLP37, N-(5-(2-Amino-5-(4-(piperazin-1-yl)phenyl)pyridin-3-yl)-3-fluoro-2-methoxyphenyl)propane-1-sulfonamide (U.S. Pat. No. 11,135,298 to Cuny et al.).

[2] = tested on: HEK-Blue cells expressing human NOD2; experiment: NOD2 signaling assay #1 (HEK-Blue NFkB-SEAP reporter, L18-MDP stimulated); type: cell-based; conditions: 1 ng/ml L18-MDP, read-out: IC50 (nM) HEKBlue
Description: HEK-Blue cells expressing human NOD2 and NFkB-SAEP reporter (Invivogen) are seeded into 96 well clear plates at 7.5×10^3 cells per well in 100 μL of DMEM media supplemented with 10% FBS and 1% antibiotic-antimycotic mix. Cells are allowed to attach for 48 h in 5% CO2 tissue culture incubator at 37° C. On the morning of the experiment, media in the wells is replaced with 100 μL of HEK-Blue detection media (Invivogen). Cells are treated with the inhibitors, diluted in DMSO (0.5 μL per well) for 15 min in 5% CO2 tissue culture incubator at 37° C. After that, cells are stimulated by the addition of 1 ng/ml L18-MDP (Invivogen). Cells are incubated in 5% CO2 tissue culture incubator at 37° C. for 8 h and absorbance, corresponding to the SEAP in the media, is determined in Wallac3V plate reader (Perkin Elmer). Inhibition, %=(1−((sample signal-unstimulated and DMSO treated cells)/(L18-MDP stimulated and DMSO treated cells−unstimulated and DMSO treated cells)))*100. IC50 values are calculated based on a dose range of inhibitor concentrations using non-linear regression in GraphPad Prism software.

[3] = molecular target: Recombinant RIPK2 protein (Homo sapiens, UniProt O43353); experiment: RIPK2 enzyme assay (ADP-Glo); type: biochemical; conditions: NI: no inhibition observed
Recombinant RIPK2 protein, sequence (O43353 whole entry, species assumed): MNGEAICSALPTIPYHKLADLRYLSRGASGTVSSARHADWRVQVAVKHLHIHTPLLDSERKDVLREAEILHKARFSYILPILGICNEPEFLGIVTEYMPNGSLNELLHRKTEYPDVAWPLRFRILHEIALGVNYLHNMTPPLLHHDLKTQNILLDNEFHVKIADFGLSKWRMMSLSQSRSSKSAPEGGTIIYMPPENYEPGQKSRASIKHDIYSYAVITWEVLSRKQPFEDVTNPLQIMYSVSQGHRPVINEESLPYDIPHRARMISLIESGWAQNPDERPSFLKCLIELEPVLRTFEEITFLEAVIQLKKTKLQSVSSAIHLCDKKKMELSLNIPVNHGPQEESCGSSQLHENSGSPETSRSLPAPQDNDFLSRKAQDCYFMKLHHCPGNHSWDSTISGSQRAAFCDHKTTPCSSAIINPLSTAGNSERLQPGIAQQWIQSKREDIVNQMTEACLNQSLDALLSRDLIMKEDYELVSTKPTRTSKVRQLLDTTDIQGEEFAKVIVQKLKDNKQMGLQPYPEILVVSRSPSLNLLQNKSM
Description: Recombinant RIPK2 protein (20 ng per reaction) is diluted in the reaction buffer consisting of 40 mM Tris (pH 7.5); 20 mM MgCl2; 0.1 mg/ml BSA; 50 μM DTT. Diluted protein is added to low volume white 384 well plates (2 μL/well). Inhibitors are diluted in reaction buffer (final 25% DMSO), 1 μL is added to each well and incubated 5 min at room temperature. Reactions are initiated by the addition of 2 μL of 100 μM ATP and 1 mg/ml RS repeat peptide (SignalChem) in the reaction buffer. Plates are sealed with plastic coverslips and incubated at room temperature for 2 h. Reactions are stopped by the addition of 5 μL of ADP-Glo reagent (Promega) and ADP generation reaction is performed for 40 min at room temperature. Luminescence signal is generated by the addition of 10 μL of Kinase detection reagent (Promega) for 30 min at room temperature. Luminescence signals are determined using appropriate luminescence plate-reader (typical integration time 0.3-1 sec). To calculate percent inhibition, average background signal is subtracted from test well and maximal signal wells. Inhibition, %=(1−(test signal/maximal signal))*100. The percent inhibition at a specified concentration is determined or IC50 values are calculated based on a dose range of inhibitor concentrations using non-linear regression in GraphPad Prism software.

[4] = tested on: NOD2 cellular signaling in THP1 cells; experiment: NOD2 signaling assay #2 (THP1 NFkB-SEAP reporter, L18-MDP stimulated); type: cell-based; conditions: Homo sapiens, THP-1, 10 ng/ml L18-MDP
Description: THP1 cells expressing NFkB-SAEP reporter (Invivogen) are seeded into 96 well clear plates at 5×10^4 cells per well in 100 μL of RPM11640 media supplemented with 10% FBS and 1% antibiotic-antimycotic mix. Cells are treated with the inhibitors, diluted in DMSO ([…] per well) for 15 min in 5% CO2 tissue culture incubator at 37° C. After that, cells are stimulated by the addition of 10 ng/ml L18-MDP (Invivogen). Cells are incubated in 5% CO2 tissue culture incubator at 37° C. for 8 h and absorbance, corresponding to the SEAP in the media, is determined in Wallac3V plate reader (Perkin Elmer). Inhibition, %=(1−((sample signal-unstimulated and DMSO treated cells)/(L18-MDP stimulated and DMSO treated cells−unstimulated and DMSO treated cells)))*100. IC50 values are calculated based on a dose range of inhibitor concentrations using non-linear regression in GraphPad Prism software.

[5] = female, C57BL/6, mouse, in vivo, ip, 10 mg/kg
[6] = single dose 10 mg/kg intraperitoneally, female C57BL/6 mice

Compound	IC50 [3]	IC50 [4]	IC50 [2]	other results
CCCS(=O)(=O)Nc1cc(-c2cc(-c3ccc(N4CCNCC4)cc3)cnc2N)cc(F)c1OC [CSLP37, N-(5-(2-Amino-5-(4-(piperazin-1-yl)phenyl)pyridin-3-yl)-3-fluoro-2-methoxyphenyl)propane-1-sulfonamide, reference compound]				Cl (clearance) [1, 5]: 59.66 ± 15.09 mL/min/kg; Cmax [1, 5]: 550 ± 200 nM; Tmax [1, 5]: 1.2 ± 0.4472 h; V (volume of distribution) [1, 5]: 24.04 ± 6.15 L/kg; t1/2 (plasma elimination half-life) [1, 5]: 4.66 ± 0.24 h; AUC ([1]; mouse, in vivo, ip, 10 mg/kg): 2920 ng·h/mL
CCCS(=O)(=O)Nc1cc(-c2cc(Br)cnc2N)cc(F)c1OC [SS-1-5, N-(5-(2-amino-5-bromopyridin-3-yl)-3-fluoro-2-methoxyphenyl)propane-1-sulfonamide]			57 nM	
CCCS(=O)(=O)Nc1cc(-c2cc(-c3ccc(N4CCNCC4)cc3)cnc2NC)cc(F)c1OC [SS-1-10, N-(3-fluoro-2-methoxy-5-(2-(methylamino)-5-(4-(piperazin-1-yl)phenyl)pyridin-3-yl)phenyl)propane-1-sulfonamide]			16 nM	
CCCS(=O)(=O)Nc1cc(-c2cc(-c3ccc(C4CCNCC4)cc3)cnc2N)cc(F)c1OC [SS-1-14, N-(5-(2-amino-5-(4-(piperidin-4-yl)phenyl)pyridin-3-yl)-3-fluoro-2-methoxyphenyl)propane-1-sulfonamide]	11 nM		0.06 nM	
CCCS(=O)(=O)Nc1cc(-c2cc(-c3ccc(N4CCN(C)CC4)cc3)cnc2N)cc(F)c1OC [SS-1-18, N-(5-(2-amino-5-(4-(4-methylpiperazin-1-yl)phenyl)pyridin-3-yl)-3-fluoro-2-methoxyphenyl)propane-1-sulfonamide]	10 nM		0.03 nM	
COc1c(F)cc(-c2cc(-c3ccc(N4CCNCC4)cc3)cnc2N)cc1NS(C)(=O)=O [SS-1-33, N-(5-(2-amino-5-(4-(piperazin-1-yl)phenyl)pyridin-3-yl)-3-fluoro-2-methoxyphenyl)methanesulfonamide]	29 nM		0.17 nM	
CCCS(=O)(=O)Nc1cc(-c2cc(-c3ccc(C4CCN(C)CC4)cc3)cnc2N)cc(F)c1OC [SS-1-38, N-(5-(2-amino-5-(4-(1-methylpiperidin-4-yl)phenyl)pyridin-3-yl)-3-fluoro-2-methoxyphenyl)propane-1-sulfonamide]	31 nM		0.07 nM	
COc1cc(-c2cc(-c3ccc(C4CCN(C)CC4)cc3)cnc2N)cc(NS(C)(=O)=O)c1OC [SS-1-64, N-(5-(2-amino-5-(4-(1-methylpiperidin-4-yl)phenyl)pyridin-3-yl)-2,3-dimethoxyphenyl)methanesulfonamide]		0.014 nM		Cmax ([1]; mouse, in vivo, ip, single dose 10 mg/kg intraperitoneally, 6% Captisol in water, female C57BL/6 mice, read-out: maximum plasma concentration (Cmax)): 1630 ± 1200 nM; Tmax ([1]; mouse, in vivo, ip, single dose 10 mg/kg intraperitoneally, female C57BL/6 mice, read-out: Tmax): 1 h; half-life ([1]; mouse, in vivo, ip, single dose 10 mg/kg intraperitoneally, female C57BL/6 mice, read-out: t1/2 (plasma elimination half-life) (converted)): 7.88 ± 0.28 h; Cl (clearance) [1, 6]: 53.56 ± 5.68 mL/min/kg; V (volume of distribution) [1, 6]: 36.45 ± 2.61 L/kg; Tmax ([1]; single dose 10 mg/kg intraperitoneally, female C57BL/6 mice, plasma): 1 ± 0 h

More lines, main results first:

IC50 [3]	IC50 [4]	Compound	IC50 [2]	other results
137 nM		CCCS(=O)(=O)N(C)c1cc(-c2cc(-c3ccc(N4CCNCC4)cc3)cnc2N)cc(F)c1OC [SS-1-39, N-(5-(2-amino-5-(4-(piperazin-1-yl)phenyl)pyridin-3-yl)-3-fluoro-2-methoxyphenyl)-N-methylpropane-1-sulfonamide]	1.2 nM	
	0.1 nM	COc1c(F)cc(-c2cc(-c3ccc(C4CCN(C)CC4)cc3)cnc2N)cc1NS(C)(=O)=O [SS-1-43, N-(5-(2-amino-5-(4-(1-methylpiperidin-4-yl)phenyl)pyridin-3-yl)-3-fluoro-2-methoxyphenyl)methanesulfonamide]		
	1.2 nM	COc1c(F)cc(-c2cc(-c3ccc(C4CCN(C)CC4)cc3)cnc2N)cc1N(C)S(C)(=O)=O [SS-1-50, N-(5-(2-amino-5-(4-(1-methylpiperidin-4-yl)phenyl)pyridin-3-yl)-3-fluoro-2-methoxyphenyl)-N-methylmethanesulfonamide]		
	20 nM	CCCS(=O)(=O)Nc1cc(-c2cc(C#CCN3CCN(C)CC3)cnc2N)cc(F)c1OC [SS-1-66, N-(5-(2-amino-5-(3-(4-methylpiperazin-1-yl)prop-1-yn-1-yl)pyridin-3-yl)-3-fluoro-2-methoxyphenyl)propane-1-sulfonamide]		
	0.1 nM	COc1cc(-c2cc(-c3ccc(C4CCN(C)CC4)cc3)cnc2N)cc(NC(C)=O)c1OC [SS-2-41, N-(5-(2-amino-5-(4-(1-methylpiperidin-4-yl)phenyl)pyridin-3-yl)-2,3-dimethoxyphenyl)acetamide]		
